From patent US20080206220A1, “2031 Oxidoreductase” (F2G LTD, priority 2004, published 2008)

What was measured:
Recombinant 2031 OR = test: Oxidoreductase assay: NADPH oxidation monitored at 340 nm, 96-well; assay type: biochemical, Aspergillus fumigatus; conditions: 500 μM substrate, 1 μg/200 μL 2031 OR, 120 μM NADPH
Experimental: The assay for 2031 OR is based on methods described by Abramovitz & Massey (1976, J. Biol. Chem. 251: 5321-5326) and Stott et al. (1993, J. Biol. Chem. 268: 6097-6106) and is based upon the ability of this enzyme to oxidise the pyridine nucleotides NADH and/or NADPH. […] Conversion of NAD(P)H to NAD(P)^+ can therefore be monitored spectrophotometrically at a wavelength of 340 nm. A similar assay can be employed for all oxidoreductases that use NADH or NADPH as a cofactor.
Assays were carried out in 96-well plates. To each well was added the following; Recombinant 2031 OR (10-1000 ng); 40 μl of 125-2500 μM NADPH; 1 μL 100 mM cyclohexeneone or other substrate, and the volume made up to 200 μL with 0.1 M potassium phosphate pH 7.0. Samples were incubated at room temperature and absorbance measurements were taken at 340 nm every 30 seconds for 10 min. The change in absorbance was expressed as nmoles NADPH oxidised, using the molar extinction coefficient of NADPH and NADH at 340 nm of 6270 (i.e., a 1M solution has an optical density of 6270 at this wavelength).
This is illustrated in FIG. 5. Final concentrations in the assay were as follows: 500 μM substrate, 1 μg/200 μL 2031 OR, 120 μM NADPH.

O=C1C=CCCC1 = test: purified protein, by the assay type; conditions: other: recombinant 2031 OR, 100 mM potassium phosphate buffer pH7.0; pH 7.0
Experimental: Assay plates: Compounds to be tested were dissolved in 100% DMSO (polypropylene vessels), diluted in water and loaded into 384 square well polystyrene plates (10 μl/well). The final DMSO concentration in all assay wells was 5% v/v.
βNADPH (tetrasodium salt)/2-cyclohexen-1-one reagent; Solutions of NADPH (1.2917 mM in 100 mM potassium phosphate buffer, pH7.0) and 2-cyclohexen-1-one (10 mM in 100 mM potassium phosphate buffer, pH7.0) were prepared on the day of the assay and combined in a ratio of 1 part of 2-cyclohexen-1-one solution to 9 parts NADPH solution. Final assay well concentrations for NADPH and 2-cyclohexen-1-one were 465 μM and 400 μM respectively.
For the iscreen, protein was typically diluted to 5 to 11.25 μg/ml in 100 mM potassium phosphate buffer, pH7.0.
Stop reagent: 0.4 M NaOH in water.
To give an increased signal, the screen was carried out using 2-cyclohexen-1-one at 4 times Km. […]
Assays were carried out using Tecan Freedom, Tecan TeMo and PerkinElmer Minitrak robots together with a ThermoLabsystems multidrop 384 and a Tecan Safire automated plate reader. […] Plates were read at 340 nm on a Tecan Safire plate reader and data processed using ‘in-house’ created Excel spreadsheets to convert raw data into percent inhibition data. […]

Molecule | Reduction of substrates by recombinant 2031 OR (substrate comparison, FIG. 5) (Recombinant 2031 OR) | Km (O=C1C=CCCC1)
O=C1C=CCCC1 [2-cyclohexen-1-one] | better substrate than menadione, duroquinone or N-ethylmaleimide | 
2031 OR enzyme (Aspergillus fumigatus Af293) |  | 100 µM
